Source: patent US6482805B2 (Parker Hughes Institute, priority 1998, dated 2002)

Key:
[1] = tested on: human sperm; assay: Sperm motility assay by CASA (Example 1); format: cell-based; conditions: for EC50: read-out: EC50, sperm motility
Method: All donor specimens were obtained after informed consent and in compliance with the guidelines of the Wayne Hughes Institute Institutional Review Board. Motile sperm (≧10×10^6/ml), were suspended in 0.5 ml of Biggers, Whitten, and Whittingam's medium (BWW) containing 25 mM HEPES (Irvine Scientific, Santa Ana, Calif.), and 0.3% bovine serum albumin (BSA; Fraction V, Sigma Chemical Co, St. Louis, Mo.) in the presence and absence of serial two-fold dilutions of test substance (300 μM to 4.6 μm) in 1% DMSO. The stock solutions of synthetic WHI compounds were prepared in DMSO (10 mg/ml) and diluted in DMSO to yield the desired concentrations. Corresponding volume of DMSO (1%) was added to control tubes. N-9 was diluted in BWW-0.3% BSA (pH 7.4) to yield the desired concentrations (4.6 to 300 μM). After 3 hours of incubation at 37° C., the percentage of motile sperm was evaluated by computer-assisted sperm analysis (CASA) as described [L. J. Burkman, Fertil. Steril. […] The percent motilities were compared with sham-treated control suspensions of motile sperm. […] Non-linear regression analyses were used to determine the EC50 values from the concentration effect curves using GraphPad PRISM software (San Diego, Calif.).
For evaluating sperm motion kinematics using CASA, 4 μl each of sperm suspension was loaded into two 20-μm Microcell chambers (Conception Technologies) that was placed onto a counting chamber at 37° C. At least 5-8 fields per chamber were scanned for analysis using a Hamilton Thorne Integrated Visual Optical System (IVOS), version 10 instrument (Hamilton Thorne Research Inc., Danvers, Mass.). Each field was recorded for 30 seconds. […] The performance of the analyzer was periodically checked using the play-back function. The attributes of sperm kinematic parameters evaluated included numbers of motile (MOT) and progressively (PRG) motile sperm; curvilinear velocity (VCL; a measure of the total distance traveled by a given sperm during the acquisition divided by the time elapsed); average path velocity (VAP; the spatially averaged path that eliminates the wobble of the sperm head), straight line velocity (VSL; the straight-line distance from beginning to end of track divided by time taken), beat cross frequency (BCF, frequency of sperm head crossing sperm average path), the amplitude of lateral head displacement (ALH; the mean width of sperm head oscillation) and the derivatives, straightness ([…]); linearity (LIN=100×VSL/VCL; departure of sperm track from a straight line). Data from each individual cell track were recorded and analyzed. At least 200 motile sperm were analyzed for each aliquot sampled.

[2] = tested on: human sperm; assay: cells; format: cell-based
Method: All donor specimens were obtained after informed consent and in compliance with the guidelines of the Hughes Institute Institutional Review Board. To evaluate the spermicidal effects of ZDV derivatives, highly motile fraction of pooled donor sperm (n 8) were prepared from liquefied normospermic semen by discontinuous (90-45%) gradient centrifugation using Enhance-S-Plus (Conception technologies, San Diego, Calif.) cell isolation medium as previously described. [D'Cruz O J, et al., Biol Reprod 1999; 60:1419-1428; D'Cruz O J, et al., Biol Reprod 1995; 53:118-1130; and D'Cruz O J, et al., Biol Reprod 1998; 58:1515-1526]. The resulting pellet was washed twice and resuspended in 1-ml of Biggers, Whitten, and Whittingam's medium (BWW) (Irvine Scientific, Santa Ana, Calif.) containing 3% BSA (fraction V; Sigma Chemical Co., St. Louis, Mo.). One-ml aliquots of the sperm suspension were centrifuged (500× g, 5 min) and incubated at 45° for 90 min at 37° C. in 5% CO2 atmosphere. The supernatant containing primarily motile sperm was aspirated carefully, washed once in BWW medium containing 25 mM HEPES and 0.3% BSA and resuspended in the same medium. Pooled motile sperm (=10×10^6/ml) prepared from 3-5 donors were suspended in 1-ml of BWW-0.3% BSA in the presence and absence of serial 2-fold dilutions of test substance (1.9 μm to 500 μM) in 0.5% dimethyl sulfoxide (DMSO). The stock solutions of synthetic compounds were prepared in DMSO (100 mM) and diluted in medium to yield the desired concentrations. A corresponding volume of DMSO (0.5%) was added to control tubes. After 3 hour incubation at 37° C., the percentage of motile sperm was evaluated by computer-assisted sperm motion analysis (CASA) [D'Cruz O J, et al., Biol Reprod 1998; 58:1515-1526; D'Cruz O J, et al., Mol Hum Reprod 1998; 4:683-693; D'Cruz O J, et al., Biol Reprod 1999; 60:435-444]. The percentage motilities were compared with those of sham-treated control suspensions of motile sperm. The spermicidal activity of test compounds was expressed as the mean EC50 values (the final concentration of the compound in the medium that decreases the proportion of motile sperm by 50%) calculated from three independent experiments.
For CASA, 4 μl of each sperm suspension were loaded into a 20-μm Microcell chamber at 37° C. Eight to ten fields per chamber were scanned for analysis using a Hamilton Thome Integrated Visual Optical System (IVOS), version 10 instrument (Hamilton Thome Research Inc., Danvers, Mass.) [see, D'Cruz O J, et al. Biol Reprod 1998; 58:1515-1526; and D'Cruz O J, et al., Mol Hum Reprod 1998; 4:683-693; and D'Cruz O J, et al., Biol Reprod 1999; 60:435-444]. Each field was recorded for 30 sec. The computer calibrations were set at 30 frames at a frame rate of 30/s. Other settings were as follows: minimum contrast 8; minimum size 6; low-size gate, 1.0; high-size gate, 2.9; low-intensity gate, 0.6; high-intensity gate, 1.4; phase-contrast illumination; low path velocity at 10 μm/s, and threshold straightness at 80%; magnification factor, 1.95.
The sperm kinematic parameters that were determined included numbers of motile (MOT) and progressively (PRG) motile sperm; curvilinear velocity (VCL; a measure of the total distance traveled by a given sperm during the acquisition divided by the time elapsed); average path velocity (VAP; the spatially averaged path that eliminates the wobble of the sperm head), straight line velocity (VSL; the straight-line distance from beginning to end of track divided by time taken), beat cross frequency (BCF, frequency of sperm head crossing sperm average path), the amplitude of lateral head displacement (ALH; the mean width of sperm head oscillation), straightness (STR=VSL/VAP×100); linearity (LIN=VSL/VCL×100; departure of sperm track from a straight line). Data from each individual cell track were recorded and analyzed. At least 200 motile sperm were analyzed for each aliquot sampled.

[3] = 3 hour incubation, mean ± SD of three experiments, read-out: EC50 (sperm motility, CASA) (converted)
[4] = Table 4, mean of three experiments, read-out: Sperm EC50
[5] = 3 hours incubation at 37° C., CASA

Row | Compound | EC50 [2, 3] [µM] | EC50 [2, 4] [µM] | EC50 [1, 5] [µM] | further results
1 | 5-Bromo-6-methoxy-5,6-dihydro-3′-azidothymidine 5′-[Phenyl methoxyalaninyl phosphate] [WHI-04] | 35 ± 5 | 35 |  | spermicidal activity, in words ([1]; compared with related derivatives): improved spermicidal activity over WHI-01
2 | 5-Bromo-6-methoxy-5,6-dihydro-3′-azidothymidine-5′-[(p-Fluorophenyl methoxyalaninyl phosphate] [WHI-06] | 15 | 15 | 15 | 
3 | 5-bromo-6-methoxy-5,6-dihydro-3 ′-azidothymidine-5 ′-(p-methoxyphenyl) methoxyalaninyl phosphate [WHI-05] | 24 | 24 | 29 | 
4 | CCCCCCCCCc1ccc(OCCOCCOCCOCCOCCOCCOCCOCCOCCO)cc1 [Compound N-9, nonoxynol-9, reference compound] |  |  |  | EC50 ([1]; Homo sapiens, Sperm, 3 hours incubation at 37° C., CASA): 81 µM; EC50 ([2]; Homo sapiens, Sperm, Table 4, mean of three experiments, read-out: Sperm EC50): 81 µM
5 | COC(=O)C(C)NP(=O)(OCC1OC(N2C(=O)NC(=O)C(C)(Br)C2OC)CC1N=[N+]=[N-])Oc1ccc(Br)cc1 (centres unmarked) [WHI-07, 5-Bromo-6-methoxy-5,6-dihydro-3′-azidothymidine-5′-(p-Bromophenyl Methoxyalaninyl Phosphate)] |  |  |  | EC50 ([1]; Homo sapiens, Sperm, 3 h): 6 µM; EC50 ([2]; Homo sapiens, Sperm, 3 h, read-out: EC50 (sperm motility, CASA)): 5 µM; EC50 ([2]; Homo sapiens, Sperm, read-out: Sperm EC50): 5 µM
